pIC50: −log10 of the molar value.

This is an account of results in ChEMBL document CHEMBL4266046, “β-Triketone-Monoterpene Hybrids from the Flowers of the Australian Tree Corymbia intermedia” (J Nat Prod, 2018).

For series [1], the system named is Plasmodium falciparum. In words: Antiplasmodial activity against synchronized ring stage of chloroquine-sensitive Plasmodium falciparum 3D7 infected in human erythrocytes assessed as inhibition of parasite replication at higher concentration after 72 hrs by DAPI staining based fluorescence imaging analysis relative to control. It is filed as functional.
In a further series the test system is HEK293. In words: (§1) Cytotoxicity against HEK293 cells assessed as inhibition of cell proliferation at 100 uM relative to control. It is filed as cell-based. Conditions: human, hek293, 100 µM.
The subject of series [2] is Plasmodium falciparum. Kind of series: Antiplasmodial activity against synchronized ring stage of chloroquine-sensitive Plasmodium falciparum 3D7 infected in human erythrocytes assessed as inhibition of parasite replication after 72 hrs by DAPI staining based fluorescence imaging analysis. The series is classed as functional, organism-based. Conditions: 3D7, 72 h.
Series [3] in a line: as §1. It is filed as cell-based. Conditions: human, HEK293 cells.

As to `CC1(C)C(=O)C2=C(O[C@@]3(C)[C@H](C[C@@H]4C[C@H]3C4(C)C)[C@H]2c2ccccc2)C(C)(C)C1=O`, in the series on Plasmodium falciparum [1], the “inhibition (INH)” value worked out at 100%. Moreover, the Activity entry with HEK293 is on record as “Non-Toxic”. Also, in the series on Plasmodium falciparum [2], the pIC50 is 4.68.

For `CC1(C)C(=O)C2=C(O[C@]3(CC[C@H]4C[C@@H]3C4(C)C)C[C@@H]2c2ccccc2)C(C)(C)C1=O`, the inhibition at 100 µM in series [3] was found to be 64%. Moreover, the pIC50 in the series on Plasmodium falciparum [2] was 4.90.

On to `CC1(C)C(=O)C2=C(O[C@]3(CC[C@H]4C[C@@H]3C4(C)C)C[C@H]2c2ccccc2)C(C)(C)C1=O`, for which the “inhibition (INH)” value in the series with Plasmodium falciparum [1] was determined as 100%. In addition, in the series on Plasmodium falciparum [2], the pIC50 was 5.00.

By pIC50 is commonly meant the negative decadic logarithm of the IC50, by convention in mol/L. By inhibition is commonly meant how much of the control response was suppressed.
